The subject of one data set is B6.Sle1.Sle3 mice. Kind of data set: Preventive experiment in B6.Sle1.Sle3 mice: spleen weight, splenic cellularity and lymphocyte subsets by flow cytometry. The class given is in vivo, mouse. Also on record: Splenic B cells: B220+, AA4.1+ (mature) / Splenic B cells: Follicular B cells / Splenic B cells: Marginal zone B cells / Splenic B cells: B1a cells / Splenic B cells: B220+, AA4.1+ (immature) / Splenic B cells: T1 immature / Splenic B cells: T2 immature / Splenic B cells: T3 immature / Splenic T cells: CD4 T cells / Splenic T cells: CD8 T cells: unit not given here. The procedure: Flow cytometric analysis and antibodies: Splenocytes were depleted of red blood cells using a lysis buffer (containing 0.15M NH4Cl, 10 mM KHCO3, and 0.1 mM Na2EDTA, pH 7.2), and single-cell suspensions were prepared for flow cytometric analysis. Flow cytometric analysis was performed as described previously (17).
In vivo experiments: In the first preventive experiment, CDDO-Me was diluted in sesame oil. Two-month-old B6.Sle1.Sle3 mice (n=20) received CDDO-Me at a final dose of 3 mg/kg or vehicle alone (i.e., placebo), by oral gavage 3 times per week for a period of 2 months. In a confirmatory preventive study, 2-month-old MRL/lpr mice (n=8 per group) were orally administered CDDO-Me (3 mg/kg), sesame oil, water, or dexamethasone (1 mg/kg) 3 times a week for 2 months. Serum and 24-hour urine samples were obtained on days 0, 14, and 60. All serum samples were subjected to ELISA for autoantibodies, and urine samples were assayed for total protein as previously described (17,18). On day 60, when mice were killed, the cellular composition of the spleen and lymph nodes was determined by flow cytometry, and the kidneys were examined for pathology, as described below. In addition, the expression of various signaling molecules in the spleens and kidneys of the treated mice was assayed by Western blotting, as described above. In the treatment experiment, 7-month-old NZM2410 mice with proteinuria (n=4-7 per group) were treated with CDDO-Me (3 mg/kg) or placebo by oral gavage 5 times per week for a period of 2 months. Proteinuria, autoantibody production, spleen weight, and survival rates were assessed.
To address this, 2-month-old female B6.Sle1.Sle3 mice were treated for 60 days with CDDO-Me or placebo, and then spleen size and cellularity were assessed in both groups.
A general note: Flow cytometry measures light scatter and fluorescence of single cells or particles in a stream.

The conditions of data set [1]: mouse, in vivo. The source says:
Since this was a relatively long-term study, and since CDDO-Me cripples multiple signaling axes, one concern can be potential side effects. After 60 days of drug administration (either in the preventive or treatment experiment), body weights of mice from both the CDDO-Me group and the placebo group were similar. […] In addition, liver function was monitored by assaying aspartate aminotransferase (AST); however, there were no significant changes in the CDDO-Me-treated group (AST activity 75.7±6.5 units/liter) compared to the placebo group (74.0±5.8 units/liter).

The mark [2] stands for this setting: absolute cell number in spleen, 4-month-old mice, 60 days treatment, mean ± SEM, n=10.

The structures appear in SMILES notation.

This note sets out measurements from patent publication US20190125715A1, “CDDO-Me AS A THERAPY FOR LUPUS” (priority 2014, published 2019).

As for `COC(=O)[C@]12CCC(C)(C)C[C@H]1[C@H]1C(=O)C=C3[C@@]4(C)C=C(C#N)C(=O)C(C)(C)[C@@H]4CC[C@@]3(C)[C@]1(C)CC2` [CDDO-Me, methyl-2-cyano-3,12-dioxooleana-1,9-dien-28-oate], the “Total spleen cell count” value with B6.Sle1.Sle3 mice (4-month-old B6.Sle1.Sle3 mice after 60 days CDDO-Me 3 mg/kg oral gavage 3 times per week, mean ± SEM, n=10) is 89.1 ± 2.3 10^6. Also, the “percentage of CD8+ T cells among splenic T cells” value with B6.Sle1.Sle3 mice (60 days treatment, mean±SEM, placebo 6.8±1.1%, P=0.023) worked out at 9.73±0.4%. In addition, the “percentage of CD4+ T cells among splenic T cells” value with B6.Sle1.Sle3 mice (60 days treatment, mean±SEM, placebo 15.1±1.2%, P=0.021) was 12.1±0.35%. The “B cell activation, surface CD86 expression” value in the data set on B6.Sle1.Sle3 mice (60 days treatment, placebo 8.72±0.45, P<0.002) was 6.48±0.42 mean fluorescence intensity units. Moreover, the “absolute number of total splenic CD4+ T cells” value with B6.Sle1.Sle3 mice (60 days treatment, placebo 39.0±2.0 million, P<0.0001) is 18.7±3.8 million. In addition, in the data set on B6.Sle1.Sle3 mice (setting [2]), the “Splenic B cells: B1a cells” value amounted to 4.0 ± 0.3; the “Splenic B cells: B220+, AA4.1+ (immature)” value amounted to 10.4 ± 1.1; the “Splenic B cells: B220+, AA4.1+ (mature)” value amounted to 45.3 ± 3.2; the “Splenic B cells: Follicular B cells” value is reported as 30.9 ± 1.6. In addition, in the data set with B6.Sle1.Sle3 mice (setting [2]), the “Splenic B cells: Marginal zone B cells” value is 4.0 ± 0.2, the “Splenic B cells: T1 immature” value stood at 1.0 ± 0.1, the “Splenic B cells: T2 immature” value was determined as 3.1 ± 0.2 and the “Splenic B cells: T3 immature” value turned out to be 4.0 ± 0.2. In addition, in the data set on B6.Sle1.Sle3 mice (setting [2]), the “Splenic T cells: CD4 T cells” value turned out to be 18.7 ± 3.8, the “Splenic T cells: CD8 T cells” value was 8.6 ± 2.4, the “Splenic T cells: CD69+/CD4 T cells” value is on record as 5.1 ± 0.6 and the “Splenic T cells: CD69+/CD8 T cells” value is recorded as 0.6 ± 0.1. Also, the “decrease of overall spleen weights compared to the placebo-treated group” value with B6.Sle1.Sle3 mice (female B6.Sle1.Sle3 mice treated for 60 days) is reported as roughly 50%. In addition, in data set [1], the “AST activity (liver function)” value is 75.7±6.5 units/liter; the “all blood cell counts (WBC, RBC, hemoglobin, hematocrit, MCV, MCH, MCHC, RDW, MPV, neutrophils, lymphocytes, eosinophils) versus placebo group” value is “remained similar”; the “platelet counts versus placebo group” value is “comparable”.
